How the values were obtained:
Assay type in all cases: cell-based
Zap-70 [1] = molecular target: T1, Zap-70 (Homo sapiens, UniProt P43403); test: PathScan Phospho-Zap-70 (Tyr319) Sandwich ELISA in Jurkat cells; settings: lenalidomide (1 and 3 μM) or pomalidomide (1 and 3 μM), 4 h and 8 h, Len<Pom
T1 sequence (P43403 1-619): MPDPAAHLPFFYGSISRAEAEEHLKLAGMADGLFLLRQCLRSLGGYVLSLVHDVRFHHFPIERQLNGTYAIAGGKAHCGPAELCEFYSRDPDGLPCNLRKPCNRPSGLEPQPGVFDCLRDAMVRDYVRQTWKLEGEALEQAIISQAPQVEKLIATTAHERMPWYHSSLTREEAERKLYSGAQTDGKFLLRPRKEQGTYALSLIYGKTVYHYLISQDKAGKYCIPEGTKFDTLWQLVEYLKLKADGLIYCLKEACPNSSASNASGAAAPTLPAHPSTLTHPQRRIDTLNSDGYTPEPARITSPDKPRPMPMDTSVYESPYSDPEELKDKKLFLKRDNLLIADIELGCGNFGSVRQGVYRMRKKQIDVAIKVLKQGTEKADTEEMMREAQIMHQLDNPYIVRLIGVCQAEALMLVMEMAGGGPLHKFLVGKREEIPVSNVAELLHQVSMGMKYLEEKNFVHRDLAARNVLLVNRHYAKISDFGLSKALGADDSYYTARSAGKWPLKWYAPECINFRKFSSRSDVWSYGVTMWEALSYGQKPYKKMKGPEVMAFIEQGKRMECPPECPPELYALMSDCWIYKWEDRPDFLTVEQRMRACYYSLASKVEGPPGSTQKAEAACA
Procedure: (A) Jurkat cells were transfected with scrambled (Sc) siRNA or Zap-70 siRNA. Whole cell lysates were subjected to immunoblotting using indicated Abs. (B) Jurkat cells were treated with lenalidomide ([…]) or pomalidomide (1 and 3 μM) for 4 h and 8 h. Whole cell lysates were subjected to p-Zap ELISA assay. (C) Jurkat whole cell lysates were incubated with pomalidomide-beads in the presence or absence of competitor (1 mM free pomalidomide) for 1 h. After elution, samples were subjected to immunoblotting using anti-Zap-70 Ab. (D) Saturation-transfer difference resulting from the binding of pomalidomide to Zap-70. Pomalidomide is at 320 μM and Zap-70 is approximately 2 μM in deuterated PBS solution. […] (E) Saturation-transfer difference resulting from the binding of pomalidomide to Zap-70 in the presence of 2.56 mMATP. Pomalidomide is at 320 μM and Zap-70 is approximately 2 μM in deuterated PBS solution. […] Note that both ATP and pomalidomide show binding the Zap-70. (F) Non-cell based Zap-70 kinase assay was carried out, according to manufacturer's protocol.
Phosphorylation of Zap-70 was evaluated using PathScan Phospho-Zap-70 (Tyr319) Sandwich ELISA Kit (Cell Signaling Technology), according to manufacturer's protocol.

Zap-70 [2] = molecular target: T1, Zap-70; test: Immunoblotting of p-Zap-70, p-LAT and p-ERK in PBMCs; parameters: endogenous in cells; host or cells: primary PBMCs, primary T cells and primary NK cells from healthy volunteers
Procedure: (A) PBMCs were cultured with pomalidomide (“Pom”) (0.01-1 μM) for 16 h. […] (B) PBMCs were cultured with pomalidomide (0.1 and 1 μM) for the indicated time periods. (C) PBMCs were cultured with lenalidomide (“Len”) (1 μM) for 16 h. (D) Primary T-cells from healthy volunteer were cultured with pomalidomide (0.25-1 μM) for 16 h. (E) Jurkat cells were cultured with pomalidomide (0.5 and 1 μM) for 16 h. Whole cell lysates were subjected to immunoblotting (A-E) using indicated Abs. (F) Jurkat cells were cultured with pomalidomide (0.01-1 μM) or lenalidomide (0.01-1 μM) for 72 h. Cell growth was assessed by MTT assay.
To characterize the effect of IMiDs on Zap-70 function in immune effector cells, pomalidomide triggered phosphorylation of Zap-70 was evaluated along with its known downstream target linker of activated T-cells (LAT) in PBMCs from healthy volunteers. […] Image J densitometric analysis confirmed 42% increased p-Zap-70 after pomalidomide (1 μM) treatment (FIG. 1A, lower panel). The increased p-Zap-70, p-LAT, as well as downstream p-ERK in PBMCs triggered by pomalidomide is also time-dependent (FIG. 1B). […] Since Zap-70 is a mediator of T-cell receptor signaling, whether IMiDs triggered p-Zap-70 in T cells from healthy volunteers was studied.

Zap-70 [3] = molecular target: T1, Zap-70; test: Immunoblotting of p-Zap-70 in primary NK cells from healthy volunteers; parameters: endogenous in cells; host or cells: primary PBMCs, primary T cells and primary NK cells from healthy volunteers; settings: primary NK cells #1-#4, pomalidomide 0.5 μM, 24 h
Procedure: KHYG-1 cells were cultured with pomalidomide (0.25-1 μM) for 24 h. (A) Whole cell lysates were subjected to immunoblotting using indicated Abs. (B) KHYG-1 cells were incubated with calcein-AM-stained U266 cells for 4 h at the indicated effector/target (E/T) ratios. Percent specific lysis was calculated as described previously. (C) KHYG-1 cells were transfected with Scsi or Zap-70si, and then cultured with pomalidomide (0.25 μM) for 72 h in the absence of IL-2. Viable cell number was determined, and cells were then incubated with calcein AM-labeled U266 target cells for 4 h at indicated effector/target (E/T) ratios. Percent specific lysis was calculated as described previously. (D) After transfection with Scsi or Zap-70si, cells were cultured with lenalidomide or pomalidomide for 72 h. Cell growth was assessed by MTT assay. (E) KHYG-1 cells were transfected with scrambled (Scsi) or CRBNsi. The transfectants were then cultured with pomalidomide (0.5 μM) for 24 h, and whole cell lysates were subjected to immunoblotting using indicated Abs. The arrow indicates CRBN expression. (F) Primary NK cells (#1, #2, #3, #4) were isolated from healthy volunteer's PBMCs, as described in Materials and Methods. NK cells were cultured with pomalidomide (0.5 μM) for 24 h, and whole cell lysates were subjected to immunoblotting using indicated Abs. […] Percent specific lysis was calculated as previously described.

Compound: Nc1cccc2c1C(=O)N(C1CCC(=O)NC1=O)C2=O (stereo not drawn) [pomalidomide]
- p-Zap-70 (Tyr319) by ELISA (Zap-70 [1]): increased p-Zap-70 (Tyr319) in a dose-dependent fashion
- phosphorylation of LAT (immunoblotting) (Zap-70 [2]; 16 h, Pom 0.01-1 μM, Len 1 μM): induced phosphorylation of both Zap-70 and LAT in PBMCs in a dose-dependent fashion
- phosphorylation of Zap-70 (immunoblotting) (Zap-70 [2]; 16 h, Pom 0.01-1 μM, Len 1 μM): induced phosphorylation of both Zap-70 and LAT in PBMCs in a dose-dependent fashion
- increased p-Zap-70, Image J densitometric analysis (Zap-70 [2]; pomalidomide 1 μM, 16 h): 42%
- increased p-Zap-70, p-LAT and downstream p-ERK over time (Zap-70 [2]; pomalidomide 0.1 and 1 μM, indicated time periods): time-dependent
- p-Zap-70 (immunoblotting) (Zap-70 [3]): upregulated p-Zap-70 in primary NK cells
